Holding throughout (assay): DTP human tumour cell line panel, 48 h
In test [1] the test system is SF-268 CNS.
Test [2] has as its system NCI-H460 lung.
In test [3] the test system is HCC-2998 colon.
Test [4] concerns NCI-H522 lung.
Test [5] relates to HOP-18 NSCLC.
For test [6], the system named is DLD-1 colon.
The subject of test [7] is DMS 114 small cell lung.
The test system of test [8] is MDA-N.
In test [9] the test system is SK-OV-3 ovarian.
Test [10] concerns SF-539 CNS.
In test [11] the test system is SNB-19 CNS.
Test [12] has as its system CAKI-1 renal.

SMILES strings stand for the structures.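 Where inhibition never reached the appropriate level, the endpoint shown equals the highest concentration tested. Otherwise, values were interpolated linearly from a five-concentration, 48-hour dose response in 96-well plates. TGI marks complete inhibition of growth.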

For orientation: TGI means the concentration giving total growth inhibition. Read a low TGI as greater sensitivity of the cells.

Regarding `CCC1(OC(=O)CN2CCN(CCO)CC2)C(=O)OCc2c1cc1n(c2=O)Cc2cc3ccccc3nc2-1` (stereo not given), the TGI in test [1] is 13.2 µM; in test [2], 0.971 µM; in test [3], 6.29 µM; in test [4] it was 3.05 µM; in [5], 25.8 µM; in test [6] it was more than 100 µM. The concentration for total growth inhibition (TGI) in [7] is 16.8 µM; in test [8], 13.1 µM; in [9] it was 14.7 µM; in test [10] it was 1.73 µM; in test [11], 28.6 µM.
Regarding `CC(=O)O[C@H]1C(=O)[C@@]2(C)C([C@H](OC(=O)c3ccccc3)[C@]3(O)C[C@H](OC(=O)[C@H](O)[C@H](NC(=O)c4ccccc4)c4ccc(Cl)cc4)C(C)=C1C3(C)C)C1(OC(C)=O)CO[C@@H]1C[C@@H]2O` (stereo not given in full), the total growth inhibition concentration (TGI) in test [3] was 0.0105 µM; in [4], 0.00369 µM; in [7] it was 0.000649 µM; in [12], 23.9 µM; in [10], 0.0026 µM; in test [11] it was 45.3 µM.
Turning to `O=C1C=C(N2CCCC2)C=C(N2CCCC2)C1`, the TGI in test [1], in test [2], in [3], in test [4], in test [5] and in test [6] was more than 100 µM throughout. In addition, the concentration for total growth inhibition (TGI) in [7], in [12], in test [9] and in [11] was more than 100 µM throughout.
Regarding `O=C(Cc1ccccc1)NN1C(=O)C(Cl)C1c1cccc(O)c1` (stereo not given), the TGI in [1] amounted to 53.7 µM; in test [2] it was 36.4 µM; in test [3] it was 36.8 µM; in test [4], 23.2 µM; in [5], 36.5 µM; in test [6], 31.1 µM. The TGI is 29.4 µM in [7], 34.8 µM in [12], 80.5 µM in test [9] and more than 100 µM in test [11].
On to `CCN(CC)CCNC(=O)c1ccc([N+](=O)[O-])cc1OC`, for which the total growth inhibition concentration (TGI) in [1], in [2], in test [4], in [6], in [7] and in test [12] was more than 100 µM each time. In addition, the concentration for total growth inhibition (TGI) in [9], in [10] and in [11] was more than 100 µM throughout.
Regarding `Cc1c(NC(=O)C(=O)N=NC(=O)c2ccncc2)c(O)c2ccccc2c1O`, the TGI turned out to be 60.5 µM in [1]; 16.8 µM in test [2]; 30.7 µM in test [3]; 26.2 µM in test [4]; 22.3 µM in test [5]; 31.6 µM in [6]. For the same molecule, the TGI in [7] is 15.3 µM; in test [12], 57 µM; in test [9], more than 88.9 µM; in test [10] it was 33.3 µM; in [11] it was 48.3 µM.
As for `FC(F)(F)P1C2C=CC(CC2)C1(F)F` (stereo not given), the TGI in test [1], in [2], in test [3], in [4], in [5] and in test [6] was more than 100 µM throughout. The TGI in test [7], in test [12], in test [9], in test [10] and in [11] was more than 100 µM in each case.
As to `CCOc1ccc(N2C(=O)C3c4[nH]c5ccccc5c4C4CCC(C(C)(C)C)CC4C3C2=O)cc1` (stereo not given), the TGI in [1] is more than 100 µM; in [3], 79.4 µM; in test [4], more than 100 µM; in [5], more than 100 µM; in [6] it was more than 100 µM; in test [7], more than 100 µM. Also, the TGI in [9], in test [10] and in test [11] was more than 100 µM throughout.
As to `Cc1c(C(=O)CSc2nc3ccc([N+](=O)[O-])cc3[nH]2)c(=O)n(-c2ccccc2)n1C`, the TGI in [1], in test [2], in test [3], in test [4], in [6] and in test [7] was more than 100 µM each time. Moreover, the TGI in test [12], in test [9], in test [10] and in [11] was more than 100 µM in each case.
Take `CNNC1=NS(=O)(=O)c2cc(C)c(Cl)cc2S1`: the total growth inhibition concentration (TGI) in test [1], in [2], in [3], in [4], in test [12] and in test [8] was more than 10 µM throughout. The TGI in test [9], in test [10] and in test [11] was more than 10 µM in each case.
Take `COc1ccccc1/C=C1\Sc2scc(-c3cccc([N+](=O)[O-])c3)[n+]2C1=O`: the TGI in test [1] amounted to 18 µM; in test [2] it was 26.9 µM; in test [3], 22.8 µM; in test [4], 3.61 µM; in [12] it was 6.24 µM; in test [8], 12.3 µM. The TGI was found to be 26 µM in test [9], 3.56 µM in test [10] and 25.8 µM in [11].
As to `CC[C@@H]1CN2CCC1C[C@@H]2C(O)c1ccnc2ccc(OCCN3CCN(CCOc4ccc5nccc(C(O)[C@@H]6C[C@@H]7CCN6C[C@@H]7CC)c5c4)CC3)cc12` (stereo not given in full), the TGI in [1] turned out to be 41.2 µM; in test [2], 38.4 µM; in [3], 26.2 µM; in [4] it was 61.8 µM; in test [12] it was 32.5 µM; in test [8], 27.1 µM. Further, the TGI in test [9] was 33.2 µM; in [10] it was 36.7 µM; in test [11] it was 27.9 µM.
Take `COc1cc(C2C(Cl)C(=O)N2n2cnc3ccccc3c2=O)cc(OC)c1OC` (stereo not given): the total growth inhibition concentration (TGI) in test [1], in test [2], in test [3], in test [4], in [5] and in test [6] was more than 100 µM each time. Further, the TGI in test [7], in test [12], in test [9] and in test [11] was more than 100 µM in each case.
Regarding `Cc1cc(C)c(S(=O)(=O)N[C@@H](/C=C(\Br)CO)C(C)C)c(C)c1`, the TGI was more than 100 µM in test [1]; 85.4 µM in test [2]; 53.7 µM in test [3]; 37 µM in test [4]; more than 100 µM in test [12]; 69.8 µM in test [8]. In addition, the total growth inhibition concentration (TGI) in test [9], in test [10] and in test [11] was more than 100 µM each time.
For `O=C(O)C(CS)NCc1c2ccccc2[n+]([O-])c2ccccc12` (stereo not given), the TGI was 91.3 µM in test [1]; more than 100 µM in test [2]; more than 100 µM in test [3]; more than 100 µM in [4]; more than 100 µM in test [5]; more than 100 µM in test [6]. For the same molecule, the TGI is 68.6 µM in test [7], more than 100 µM in [12], more than 100 µM in test [9] and more than 100 µM in test [11].
Regarding `O=C(c1ccc(Cl)cc1Cl)N(Cc1cccnc1)C(=S)N(Cc1cccnc1)C(=O)c1ccc(Cl)cc1Cl`, the TGI in test [1] came to 20.4 µM; in [2] it was 39.2 µM; in test [3] it was 8.97 µM; in test [4], 9.8 µM; in test [12], 34.4 µM; in test [8], 6.76 µM. Moreover, the concentration for total growth inhibition (TGI) turned out to be 37.1 µM in test [9], 4.43 µM in test [10] and 25.1 µM in [11].
With `Nc1nc(Cl)c(C=O)c(NCC2(CO)CC(CCc3ccccc3)C2)n1` (stereo not given), the TGI in test [1] was found to be 36.5 µM; in [2], 33.8 µM; in test [3], 4.94 µM; in test [4], 3.56 µM; in test [12], 3.14 µM; in test [8] it was 18.1 µM. Moreover, the TGI in test [9] was determined as 24.4 µM; in [10] it was 17.8 µM; in test [11], 27.9 µM.
For the molecule `COC(=O)C1Cc2c([nH]c3ccccc23)C(c2cccc(O)c2)N1` (stereo not given), the concentration for total growth inhibition (TGI) in test [1] was more than 100 µM; in test [2], 62 µM; in [3] it was 48.3 µM; in [4] it was more than 100 µM; in test [12], more than 100 µM; in test [8] it was 40.1 µM. Further, the TGI in test [9], in [10] and in test [11] was more than 100 µM throughout.

These data come from PubChem BioAssay (NCI).
